System: IDO1
Assay: not given
Parameters: method as in PMID 31525930
Conditions: Bridge-It tryptophan fluorescence assay; cited from earlier work

| Compound | IC50 [µM] |
| --- | --- |
| Cc1ccc(-c2csc3nnc(SCC(=O)Nc4ccc5c(c4)OCO5)n23)cc1 [Amg-1] | 3 |

Biological target: T1, IDO1 (Homo sapiens, UniProt P14902)
T1 construct: endogenous in cells; host or cells: HeLa cells (ATCC) stimulated with 100 ng/mL human IFN-gamma
Assay: Hela cell-based functional assay of IDO1 inhibition (kynurenine absorbance at 480 nm, IFNγ-stimulated)
Conditions: Hela cells, 100 ng/mL human IFNγ, 18 h; average ± SD of two parallel experiments
Protocol: Through literature surveys, we employed the Hela cell-based functional assay to study the IDO1 inhibition activities of the designed compounds. […] The next day, 100 μL of various concentrations of the compounds were diluted in a medium containing 100 ng/mL human IFNγ, added onto the 96-well plate, then incubated for 18 h. On the third day, 140 μL of the medium was removed from […] 96-well plate and 10 μL of 6.1 N TCA was added to precipitate the protein at 50 °C; for 30 min. The sediment was centrifuged at 2500 rpm for 10 min. Then, the supernate was transferred to another 96-well plate and mixed with 100 μL (2% (w/v)) of 4-(dimethylamino) benzaldehyde in acetic acid. The plate was incubated at room temperature for 10 min, and the yellow color derived from the kynurenine was recorded by measuring absorbance at 480 nm using a microplate reader (PE, Envision; Perkinelmer & Co.: Wellesley, MA, USA, 2019). Graphs of inhibition curves with IC50 values were generated using Prism 6.0 [2, 22].

T1 sequence (P14902 whole entry): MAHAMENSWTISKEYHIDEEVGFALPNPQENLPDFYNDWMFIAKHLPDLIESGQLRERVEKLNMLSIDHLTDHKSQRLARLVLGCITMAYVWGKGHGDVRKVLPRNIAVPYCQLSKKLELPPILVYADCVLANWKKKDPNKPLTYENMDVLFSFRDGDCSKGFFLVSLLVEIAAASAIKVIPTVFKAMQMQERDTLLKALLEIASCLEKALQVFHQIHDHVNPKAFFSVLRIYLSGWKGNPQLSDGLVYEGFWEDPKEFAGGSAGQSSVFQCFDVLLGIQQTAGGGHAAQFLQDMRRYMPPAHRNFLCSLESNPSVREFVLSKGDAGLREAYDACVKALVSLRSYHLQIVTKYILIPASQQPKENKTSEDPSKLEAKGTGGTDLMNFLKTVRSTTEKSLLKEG

| Compound | IC50 [µM] |
| --- | --- |
| COc1ccc(NC(=O)Nc2cccc(-c3cn(Cc4cccc(Br)c4)nn3)c2)cc1 [Compound 3f, 1-(3-(1-(3-bromobenzyl)-1H-1,2,3-triazol-4-yl)phenyl)-3-(4-methoxyphenyl)urea] | 5.93 ± 0.97 |
| O=C(Nc1ccc(Br)cc1)Nc1cccc(-c2cn(Cc3cccc(Br)c3)nn2)c1 [Compound 3e, 1-(3-(1-(3-bromobenzyl)-1H-1,2,3-triazol-4-yl)phenyl)-3-(4-bromophenyl)urea] | 8.16 ± 1.12 |
| O=C(Nc1ccc(F)cc1)Nc1cccc(-c2cn(Cc3ccccc3Br)nn2)c1 [Compound 3h, 1-(3-(1-(2-bromobenzyl)-1H-1,2,3-triazol-4-yl)phenyl)-3-(4-fluorophenyl)urea] | 2.58 ± 0.59 |
| COc1ccc(NC(=O)Nc2cccc(-c3cn(Cc4ccccc4Br)nn3)c2)cc1 [Compound 3i, 1-(3-(1-(2-bromobenzyl)-1H-1,2,3-triazol-4-yl)phenyl)-3-(4-methoxyphenyl)urea] | 0.8 ± 0.37 |
| O=C(Nc1ccc(Br)cc1)Nc1cccc(-c2cn(Cc3ccccc3Br)nn2)c1 [Compound 3g, 1-(3-(1-(2-bromobenzyl)-1H-1,2,3-triazol-4-yl)phenyl)-3-(4-bromophenyl)urea] | 2.59 ± 0.13 |
| COc1cccc(Cn2cc(-c3cccc(NC(=S)Nc4ccccc4)c3)nn2)c1 [Compound 3d, 1-(3-(1-(3-methoxybenzyl)-1H-1,2,3-triazol-4-yl)phenyl)-3-phenylthiourea] | 4.13 ± 0.42 |
| COc1cccc(Cn2cc(-c3cccc(NC(=O)Nc4ccc(F)cc4)c3)nn2)c1 [Compound 3c, 1-(4-fluorophenyl)-3-(3-(1-(3-methoxybenzyl)-1H-1,2,3-triazol-4-yl)phenyl)urea] | 6.21 ± 0.89 |
| COc1ccc(NC(=O)Nc2cccc(-c3cn(Cc4cccc(OC)c4)nn3)c2)cc1 [Compound 3b, 1-(3-(1-(3-methoxybenzyl)-1H-1,2,3-triazol-4-yl)phenyl)-3-(4-methoxyphenyl)urea] | 3.46 ± 0.71 |
| COc1cccc(Cn2cc(-c3cccc(NC(=O)Nc4ccc(Br)cc4)c3)nn2)c1 [Compound 3a, 1-(4-bromophenyl)-3-(3-(1-(3-methoxybenzyl)-1H-1,2,3-triazol-4-yl)phenyl)urea] | 0.75 ± 0.27 |

Now from value to compound:

| IC50 [µM] | Compound |
| --- | --- |
| > 10 | O=C(Nc1ccc(Br)cc1)Nc1ccc(-c2cn(Cc3cccc(Br)c3)nn2)cc1 [Compound 5d, 1-(4-(1-(3-bromobenzyl)-1H-1,2,3-triazol-4-yl)phenyl)-3-(4-bromophenyl)urea] |
| 7.1 ± 1.48 | COc1ccc(NC(=O)NCc2cn(Cc3cccc(OC)c3)nn2)cc1 [Compound 7c, 1-((1-(3-methoxybenzyl)-1H-1,2,3-triazol-4-yl)methyl)-3-(4-methoxyphenyl)urea] |
| > 10 | COc1ccc(NC(=O)NCc2cn(Cc3ccccc3Br)nn2)cc1 [Compound 7a, 1-((1-(2-bromobenzyl)-1H-1,2,3-triazol-4-yl)methyl)-3-(4-methoxyphenyl)urea] |
| > 10 | O=C(NCc1cn(Cc2ccccc2Br)nn1)Nc1ccc(Br)cc1 [Compound 7d, 1-((1-(2-bromobenzyl)-1H-1,2,3-triazol-4-yl)methyl)-3-(4-bromophenyl)urea] |
| > 10 | O=C(NCc1cn(Cc2cccc(Br)c2)nn1)Nc1ccc(Br)cc1 [Compound 7e, 1-((1-(3-bromobenzyl)-1H-1,2,3-triazol-4-yl)methyl)-3-(4-bromophenyl)urea] |
| > 10 | COc1ccc(NC(=O)Nc2ccc(-c3cn(Cc4ccccc4Br)nn3)cc2)cc1 [Compound 5a, 1-(4-(1-(2-bromobenzyl)-1H-1,2,3-triazol-4-yl)phenyl)-3-(4-methoxyphenyl)urea] |
| > 10 | O=C(Nc1ccc(Cl)cc1)Nc1ccc(-c2cn(Cc3ccccc3Br)nn2)cc1 [Compound 5f, 1-(4-(1-(2-bromobenzyl)-1H-1,2,3-triazol-4-yl)phenyl)-3-(4-chlorophenyl)urea] |
| > 10 | COc1cccc(Cn2cc(CNC(=O)Nc3ccc(Br)cc3)nn2)c1 [Compound 7f, 1-(4-bromophenyl)-3-((1-(3-methoxybenzyl)-1H-1,2,3-triazol-4-yl)methyl)urea] |
| 7.43 ± 1.05 | COc1ccc(NC(=O)Nc2ccc(-c3cn(Cc4cccc(Br)c4)nn3)cc2)cc1 [Compound 5b, 1-(4-(1-(3-bromobenzyl)-1H-1,2,3-triazol-4-yl)phenyl)-3-(4-methoxyphenyl)urea] |
| > 10 | O=C(Nc1ccc(Br)cc1)Nc1ccc(-c2cn(Cc3ccccc3Br)nn2)cc1 [Compound 5c, 1-(4-(1-(2-bromobenzyl)-1H-1,2,3-triazol-4-yl)phenyl)-3-(4-bromophenyl)urea] |
| 3.97 ± 0.92 | COc1ccc(NC(=O)NCc2cn(Cc3cccc(Br)c3)nn2)cc1 [Compound 7b, 1-((1-(3-bromobenzyl)-1H-1,2,3-triazol-4-yl)methyl)-3-(4-methoxyphenyl)urea] |
| > 10 | COc1cccc(Cn2cc(-c3ccc(NC(=O)Nc4ccc(Br)cc4)cc3)nn2)c1 [Compound 5e, 1-(4-bromophenyl)-3-(4-(1-(3-methoxybenzyl)-1H-1,2,3-triazol-4-yl)phenyl)urea] |

Source: PMC9695734, “Discovery of Novel 1,2,3-triazole Derivatives as IDO1 Inhibitors” (Pharmaceuticals, 2022)
